Values of other authors as cited in US20090325918A1, “Synthesis and separation of optically active isomers and cyclopropyl derivatives of spironolactone and their biological action” (priority 2008, published 2009).

Assays:
[1] = system: hypertensive patients; conditions: hypertensive patients using spironolactone for therapy; 1% of men in the placebo group
[2] = system: patients with congestive heart failure (CHF)

CC(=O)S[C@@H]1CC2=CC(=O)CC[C@]2(C)[C@H]2CC[C@@]3(C)[C@@H](CC[C@@]34CCC(=O)O4)[C@H]12 [spironolactone, 17-hydroxy-7-alpha-mercapto-3-oxo-17-alpha-pregn-4-ene-21-carboxylic acid gamma-lactone acetate]
Gynecomastia or tender breast enlargement, occurrence in patients [1]: 10%
Reduction in mortality (risk of death) ([2]; CHF patients taking digoxin and a loop diuretic, spironolactone with digitalis and ACE inhibitor): 30%
Patients who discontinued treatment because of adverse events ([2]; spironolactone group): 8%
Frequency of hospitalization for worsening heart failure, lower than in the placebo group ([2]; spironolactone treated group vs placebo group): 35%
Water solubility: poor
